We go through one compound from patent US12410153B2, “Compounds, compositions and methods” (Avalo Therapeutics, Inc., priority 2014, dated 2025).

Series [1] is described as follows: Single-dose pharmacokinetics in monkeys (oral and IV). The format is in vivo. The following applies: male, rhesus monkey, plasma. On the procedure:
Male Sprague-Dawley rats (N=8; N=4 oral and N=4 intravenous [IV]) weighing approximately 250-280 g and male rhesus monkeys (N=4, crossover) weighing 6.0-8.8 kg were used for the PK studies. In rats, the IV dose of crystalline Form II of Compound (I) at 2 mg/kg (0.4 mL/kg) was administered as a bolus and the oral dose was administered by gavage at 15 mg/kg (5 mL/kg). In monkeys, the IV dose of Form II at 2 mg/kg (0.1 mL/kg) was administered as a slow bolus and the oral dose was administered via nasogastric tube at 15 mg/kg (5 mL/kg). Blood samples were serially collected pre-dose, and at 0.083 (IV only), 0.25, 0.50, 1, 2, 4, 6, 8, 10, 24, 48, 72, and 96 h post-dose. The concentrations of Form II in rat and monkey plasma were determined by LC/MS/MS analysis in the positive ion mode using a heated nebulizer interface. The lower limit of quantitation was 2.5 ng/mL (approximately 0.00697 μM).

Series [2] deals with T1, NMDA-GluN2B receptors, human temporal cortex homogenate (Homo sapiens, UniProt Q05586+Q13224).
T1 construct: temporal cortex homogenate (human); from tissue; host or cells: human temporal cortex homogenate
T1 sequence (Q13224 27-1484, other chains not shown): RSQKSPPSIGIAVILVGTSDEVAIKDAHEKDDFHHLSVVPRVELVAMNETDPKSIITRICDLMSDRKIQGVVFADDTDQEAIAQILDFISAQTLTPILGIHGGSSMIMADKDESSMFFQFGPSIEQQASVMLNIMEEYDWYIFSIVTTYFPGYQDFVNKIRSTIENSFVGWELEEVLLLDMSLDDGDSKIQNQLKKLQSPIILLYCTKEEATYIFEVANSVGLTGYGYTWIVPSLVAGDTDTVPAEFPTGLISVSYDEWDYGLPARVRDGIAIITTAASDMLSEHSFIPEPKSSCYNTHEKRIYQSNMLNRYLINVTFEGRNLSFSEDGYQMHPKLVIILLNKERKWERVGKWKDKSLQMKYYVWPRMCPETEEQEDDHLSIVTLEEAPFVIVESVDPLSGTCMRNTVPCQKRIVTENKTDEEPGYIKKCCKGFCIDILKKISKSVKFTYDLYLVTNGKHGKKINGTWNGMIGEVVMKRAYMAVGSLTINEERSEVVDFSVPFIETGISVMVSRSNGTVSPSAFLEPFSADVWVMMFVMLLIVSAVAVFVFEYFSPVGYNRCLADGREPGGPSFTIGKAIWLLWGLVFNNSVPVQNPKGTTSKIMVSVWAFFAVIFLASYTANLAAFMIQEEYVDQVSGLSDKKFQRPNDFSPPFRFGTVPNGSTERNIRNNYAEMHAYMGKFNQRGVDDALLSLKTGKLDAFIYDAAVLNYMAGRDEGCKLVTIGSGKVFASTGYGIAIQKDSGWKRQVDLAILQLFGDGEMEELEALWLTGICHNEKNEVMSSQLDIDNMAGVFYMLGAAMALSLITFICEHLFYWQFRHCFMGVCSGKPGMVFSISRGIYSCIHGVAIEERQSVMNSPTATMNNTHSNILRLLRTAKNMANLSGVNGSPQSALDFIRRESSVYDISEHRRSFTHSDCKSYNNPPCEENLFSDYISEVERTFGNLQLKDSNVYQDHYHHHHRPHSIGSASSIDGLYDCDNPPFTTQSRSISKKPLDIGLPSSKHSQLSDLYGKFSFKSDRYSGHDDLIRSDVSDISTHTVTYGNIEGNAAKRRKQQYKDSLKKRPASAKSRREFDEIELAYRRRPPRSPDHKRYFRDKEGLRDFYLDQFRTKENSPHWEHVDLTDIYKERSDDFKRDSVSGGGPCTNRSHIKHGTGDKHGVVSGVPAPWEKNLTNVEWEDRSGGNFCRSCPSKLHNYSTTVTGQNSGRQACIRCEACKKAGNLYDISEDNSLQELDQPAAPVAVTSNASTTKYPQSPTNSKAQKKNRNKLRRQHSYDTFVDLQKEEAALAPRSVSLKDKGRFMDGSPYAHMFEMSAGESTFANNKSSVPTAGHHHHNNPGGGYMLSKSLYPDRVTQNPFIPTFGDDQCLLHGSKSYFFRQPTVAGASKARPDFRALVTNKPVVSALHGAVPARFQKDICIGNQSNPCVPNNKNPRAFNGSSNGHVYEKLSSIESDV
As to the kind of experiment: Radioligand binding, human temporal cortex homogenate. Particulars: geometric mean. As for the experimental part:
Radioligand binding assays were performed at room temperature (or 37° C.) in 96-well microtiter plates with a final assay volume of […] in 20 mM HEPES buffer (pH 7.4) containing 150 mM NaCl. […] Nonspecific binding was assessed using N-(3-chlorobenzyl)-4-iodobenzimidamide (final concentration, 10 μM), and total binding was measured by addition of DMSO (final concentration, 2%). L(tk−) cell membranes expressing human GluN1a/GluN2B receptors (final concentration, 40 pM) and [^3H]-[(E)-N1-(2-methoxybenzyl)-cinnamamidine] (final concentration, 1 nM) were added to all wells of the microtiter plate. After 3 h (24 h or 48 h) of incubation at room temperature (or 37° C.), samples were filtered through Packard GF/B filters (presoaked in 0.05% polyethylenimine [PEI; Sigma P-3143]) and washed 10 times with 1 mL of cold 20 mM HEPES buffer per wash. After vacuum drying of the filter plates, 50 μL of Packard Microscint-20 was added and the bound radioactivity determined in a Packard TopCount.
Analogous binding experiments, to those described above for the cloned human receptor expressed in L(tk−) cells, were also performed using whole brain homogenate (rat), frontal cortex homogenate (dog and rhesus monkey), and temporal cortex homogenate (human).

Setting [3] is: rhesus, PO 15 mg/kg, mean (S.D.).

Broadly, the bioavailability is the share of a dose that reaches the circulation, judged against a reference dose that is usually intravenous. Low values mean little systemic uptake, high ones much systemic uptake. What is called Tmax is the time from dosing to the highest level. What is called half-life is how long it takes for the measured level to halve. The AUC(0-inf) is total exposure, with the tail of the curve extrapolated. The low end stands for less exposure, the high end for more exposure. A word on the Cmax: it is the peak of the concentration-time curve. What is called Ki is a measure of affinity in units of concentration, obtained from inhibition or displacement. Low values mean tighter binding, high ones weaker binding. For the compound `Cc1ccc(COC(=O)N2CC[C@H](CNc3ncccn3)[C@H](F)C2)cc1` [Form II, 4-methylbenzyl (3S, 4R)-3-fluoro-4-[(pyrimidin-2-ylamino)methyl] piperidine-1-carboxylate], the bioavailability in series [1] (15 mg/kg, dose-normalized AUC0-∞ after IV and PO, crossover) came to 50%. Besides, in series [1] (po, 15 mg/kg, PO 15 mg/kg, mean (S.D.)), the Tmax is about 2 h. The compound further showed a half-life in series [1] (IV 2 mg/kg, mean (S.D.)) of 4.2 h. Further, in series [1] (IV 2 mg/kg, mean (S.D.), read-out: CLp), the clearance worked out at 15.1 mL/min/kg. For the same compound, the Vd in series [1] (IV 2 mg/kg, mean (S.D.), read-out: Vdss) is 2.9 L/kg. Besides, the AUC(0-inf) is 6.67 µM·h in series [1] (rhesus, IV 2 mg/kg, mean (S.D.)) and 25.1 µM·h in series [1] (setting [3]). Further, in series [1] (setting [3]), the Cmax was found to be 3.6 µM. Also, the Ki turned out to be 8.1 nM in series [2] (37° C.) and 3.1 nM in series [2] (room temp.).
